Tests used:
[1] = molecular target: T1, Interstitial collagenase (Homo sapiens, UniProt P03956); assay: Inhibition of matrix metalloprotease -1.
T1 sequence (P03956 whole entry): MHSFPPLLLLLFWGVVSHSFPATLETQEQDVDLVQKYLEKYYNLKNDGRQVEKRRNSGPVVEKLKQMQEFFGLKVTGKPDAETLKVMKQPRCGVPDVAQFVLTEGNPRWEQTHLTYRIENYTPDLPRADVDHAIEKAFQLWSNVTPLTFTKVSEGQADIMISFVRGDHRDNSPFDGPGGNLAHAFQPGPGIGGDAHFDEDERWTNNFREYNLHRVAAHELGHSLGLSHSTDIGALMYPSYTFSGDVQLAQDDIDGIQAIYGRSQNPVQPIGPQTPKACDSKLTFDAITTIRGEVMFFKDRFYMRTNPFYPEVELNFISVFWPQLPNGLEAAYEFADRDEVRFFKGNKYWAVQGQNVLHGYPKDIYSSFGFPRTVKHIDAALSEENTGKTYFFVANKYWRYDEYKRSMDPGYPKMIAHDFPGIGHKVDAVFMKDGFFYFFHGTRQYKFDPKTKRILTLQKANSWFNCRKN

[2] = molecular target: T2, 72 kDa type IV collagenase (Homo sapiens, UniProt P08253); assay: Inhibition of MMP-2.
Target sequence in this assay (P08253 whole entry): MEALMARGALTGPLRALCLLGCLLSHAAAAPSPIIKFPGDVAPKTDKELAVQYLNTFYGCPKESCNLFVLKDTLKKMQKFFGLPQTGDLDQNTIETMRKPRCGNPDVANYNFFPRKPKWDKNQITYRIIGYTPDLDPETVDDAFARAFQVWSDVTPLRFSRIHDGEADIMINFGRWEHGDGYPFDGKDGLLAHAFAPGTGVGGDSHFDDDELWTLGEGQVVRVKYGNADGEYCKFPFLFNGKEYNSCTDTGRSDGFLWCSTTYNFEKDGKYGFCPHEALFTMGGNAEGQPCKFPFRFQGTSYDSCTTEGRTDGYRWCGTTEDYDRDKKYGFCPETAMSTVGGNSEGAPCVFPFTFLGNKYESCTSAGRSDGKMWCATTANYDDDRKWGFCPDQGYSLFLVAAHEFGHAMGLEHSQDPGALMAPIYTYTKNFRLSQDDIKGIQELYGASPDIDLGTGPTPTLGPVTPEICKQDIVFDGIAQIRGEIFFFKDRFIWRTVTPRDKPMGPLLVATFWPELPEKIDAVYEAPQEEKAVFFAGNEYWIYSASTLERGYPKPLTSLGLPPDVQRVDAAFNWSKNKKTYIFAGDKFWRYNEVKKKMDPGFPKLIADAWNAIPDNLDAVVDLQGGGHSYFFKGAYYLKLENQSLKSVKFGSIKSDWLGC

[3] = molecular target: T3, Stromelysin-1 (Homo sapiens, UniProt P08254)
[4] = molecular target: T2, 72 kDa type IV collagenase; assay: Inhibition of matrix metalloprotease-2 at 1 uM.
Target sequence in this assay (P08253 110-660 limits assumed): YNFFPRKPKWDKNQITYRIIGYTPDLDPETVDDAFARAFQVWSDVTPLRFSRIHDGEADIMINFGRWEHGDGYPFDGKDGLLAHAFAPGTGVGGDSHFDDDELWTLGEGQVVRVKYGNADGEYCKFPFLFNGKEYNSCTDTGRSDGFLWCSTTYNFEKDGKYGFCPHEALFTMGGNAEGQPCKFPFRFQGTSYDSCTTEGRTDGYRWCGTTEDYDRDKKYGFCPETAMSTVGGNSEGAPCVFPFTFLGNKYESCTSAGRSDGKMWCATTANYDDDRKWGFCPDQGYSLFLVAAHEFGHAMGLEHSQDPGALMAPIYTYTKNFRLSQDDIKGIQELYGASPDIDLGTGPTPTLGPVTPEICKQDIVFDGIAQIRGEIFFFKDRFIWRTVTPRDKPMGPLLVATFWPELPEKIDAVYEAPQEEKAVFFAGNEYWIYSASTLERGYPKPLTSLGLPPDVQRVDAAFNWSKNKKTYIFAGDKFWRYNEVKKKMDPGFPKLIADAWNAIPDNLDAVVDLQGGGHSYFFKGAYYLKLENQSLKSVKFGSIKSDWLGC

[5] = molecular target: T4, Interstitial collagenase (Homo sapiens) (UniProt P03956); assay: Inhibition of matrix metalloprotease-1 at 10 uM
T4 sequence (whole entry): T1 sequence (P03956 whole entry)

[6] = molecular target: T2, 72 kDa type IV collagenase; assay: Inhibition of matrix metalloprotease-2 at 1 uM
Target sequence in this assay (P08253 110-660 limits assumed): as above

[7] = molecular target: T2, 72 kDa type IV collagenase; assay: Inhibition of matrix metalloprotease-2
Target sequence in this assay (P08253 whole entry): as the sequence (P08253 whole entry) above

[8] = molecular target: T3, Stromelysin-1; assay: Inhibition of matrix metalloprotease -3
[9] = molecular target: T1, Interstitial collagenase; assay: Inhibition of matrix metalloprotease -1

T3 sequence (P08254 whole entry): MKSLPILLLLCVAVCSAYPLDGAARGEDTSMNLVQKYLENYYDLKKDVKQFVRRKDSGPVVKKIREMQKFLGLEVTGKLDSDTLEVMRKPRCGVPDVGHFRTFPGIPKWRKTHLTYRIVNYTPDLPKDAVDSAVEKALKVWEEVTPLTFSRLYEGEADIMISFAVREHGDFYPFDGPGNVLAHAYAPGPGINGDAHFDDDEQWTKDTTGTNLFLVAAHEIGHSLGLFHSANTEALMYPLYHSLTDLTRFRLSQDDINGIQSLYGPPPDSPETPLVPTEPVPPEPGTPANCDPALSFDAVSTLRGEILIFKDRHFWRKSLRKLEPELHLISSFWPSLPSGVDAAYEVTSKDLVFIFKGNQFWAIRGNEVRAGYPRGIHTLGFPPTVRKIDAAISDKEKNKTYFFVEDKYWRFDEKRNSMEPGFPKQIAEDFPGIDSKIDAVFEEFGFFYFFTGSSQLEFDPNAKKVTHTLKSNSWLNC

Row | SMILES | Ki [1] [nM] | Ki [2] [nM] | Ki [3] [nM] | inhibition [4] [%] | other results
1 | CC(C)C[C@H](NC(=O)[C@H](CCc1ccccc1)N[C@H](CCCCN1Cc2ccccc2C1=O)C(=O)O)C(=O)Nc1ccccc1 | 1600 | 110 | 12 | – | –
2 | CC(C)C[C@H](NC(=O)[C@H](CCc1ccccc1)N[C@H](CCCCc1ccccc1)C(=O)O)C(=O)Nc1ccccc1 | 72 | – | 120 | 64 | –
3 | CC[C@@H](N[C@@H](CCc1ccccc1)C(=O)N[C@@H](CC(C)C)C(=O)Nc1ccccc1)C(=O)O | 1800 | 1100 | 350 | – | –
4 | CC(C)C[C@H](NC(=O)[C@H](CCc1ccccc1)N[C@H](CCCNC(=O)Cc1ccccc1)C(=O)O)C(=O)Nc1ccccc1 | 870 | 60 | 10 | – | –
5 | CC(C)C[C@H](NC(=O)[C@H](CCc1ccccc1)N[C@H](CCCCCNC(=O)c1ccccc1)C(=O)O)C(=O)Nc1ccccc1 | 3890 | 120 | 20 | – | –
6 | CC(C)C[C@H](NC(=O)[C@H](CCc1ccccc1)N[C@H](CCCNC(=O)CCc1ccccc1)C(=O)O)C(=O)Nc1ccccc1 | 2200 | – | 9.5 | 87 | –
7 | CC(C)C[C@H](NC(=O)[C@H](CCc1ccccc1)N[C@H](CCCCN1C(=O)c2ccccc2C1=O)C(=O)O)C(=O)Nc1ccccc1 | 720 | 86 | 8 | – | –
8 | CC(C)C[C@H](NC(=O)[C@H](CCc1ccccc1)N[C@H](CCCN1C(=O)c2ccccc2C1=O)C(=O)O)C(=O)Nc1ccccc1 | 3400 | 570 | 140 | – | –
9 | CCCC[C@@H](N[C@@H](CCc1ccccc1)C(=O)N[C@@H](CC(C)C)C(=O)Nc1ccccc1)C(=O)O | 6800 | 1100 | 320 | – | –
10 | CC(C)C[C@H](NC(=O)[C@H](CCc1ccccc1)N[C@H](CCCCNC(=O)CCc1ccccc1)C(=O)O)C(=O)Nc1ccccc1 | 13000 | – | 190 | 49 | –
11 | CC(C)C[C@H](NC(=O)[C@H](CCc1ccccc1)N[C@H](CCCNC(=O)CCCc1ccccc1)C(=O)O)C(=O)Nc1ccccc1 | – | – | 120 | 70 | inhibition [5]: 36%
12 | CC(C)C[C@H](NC(=O)[C@H](CCc1ccccc1)N[C@H](CCNC(=O)c1ccccc1)C(=O)O)C(=O)Nc1ccccc1 | 1090 | – | 120 | – | inhibition [6]: 72%
13 | CC(=O)N1CCCC1C(=O)NCCCC[C@@H](N[C@@H](CCc1ccccc1)C(=O)N[C@@H](CC(C)C)C(=O)Nc1ccccc1)C(=O)O (stereo partly drawn) | 1100 | – | 180 | 91 | –
14 | CC(C)C[C@H](NC(=O)[C@H](CCc1ccccc1)N[C@H](CCCCNC(=O)c1ccccc1)C(=O)O)C(=O)Nc1ccccc1 | 5800 | 120 | 32 | – | –
15 | CC(C)C[C@H](NC(=O)[C@H](CCc1ccccc1)N[C@H](CCN1C(=O)c2ccccc2C1=O)C(=O)O)C(=O)Nc1ccccc1 | 2090 | 20 | 33 | – | –
16 | CC(C)C[C@H](NC(=O)[C@H](CCc1ccccc1)N[C@H](CCCNC(=O)c1ccccc1)C(=O)O)C(=O)Nc1ccccc1 | – | – | 270 | 50 | inhibition [5]: 50%
17 | CC(C)C[C@H](NC(=O)[C@H](CCc1ccccc1)N[C@H](CCNC(=O)CCCc1ccccc1)C(=O)O)C(=O)Nc1ccccc1 | 4410 | 770 | 270 | – | –
18 | CC(C)C[C@H](NC(=O)[C@H](CCc1ccccc1)N[C@H](CCCCCNC(=O)Cc1ccccc1)C(=O)O)C(=O)Nc1ccccc1 | 5810 | 350 | 47 | – | –
19 | CNC(=O)[C@H](Cc1ccccc1)NC(=O)[C@H](CC(C)C)N[C@H](CCN1C(=O)c2cc3ccccc3cc2C1=O)C(=O)O | – | – | – | – | Ki [7]: 91 nM; Ki [8]: 20 nM; Ki [9]: 5 nM
20 | CC(C)C[C@H](NC(=O)[C@H](CCc1ccccc1)N[C@H](CCCCNC(=O)Cc1ccccc1)C(=O)O)C(=O)Nc1ccccc1 | 7200 | 70 | 28 | – | –
21 | CC(C)C[C@H](NC(=O)[C@H](CCc1ccccc1)N[C@H](CCNC(=O)Cc1ccccc1)C(=O)O)C(=O)Nc1ccccc1 | 1790 | – | 130 | – | –
22 | CC(C)C[C@H](NC(=O)[C@H](CCc1ccccc1)N[C@H](CCNC(=O)CCc1ccccc1)C(=O)O)C(=O)Nc1ccccc1 | 3330 | – | 110 | 41 | –
23 | CCCCCC[C@@H](N[C@@H](CCc1ccccc1)C(=O)N[C@@H](CC(C)C)C(=O)Nc1ccccc1)C(=O)O | – | 2300 | 530 | – | inhibition [5]: 43%
